Results as given in ChEMBL document CHEMBL3991942, “Low molecular weight MYC-MAX inhibitors” (2011).
The source made the active and inactive calls. The rule behind the calls is not given here.

Columns and labels:
[1] = Cytotoxicity against rat KO-HMG cells assessed as cell growth inhibition at 6 to 50 uM after 3 to 4 days by trypan blue exclusion assay; format: cell-based
HL-60 [2] = test: Effect on absolute levels of c-Myc in human HL60 nuclear extracts at 100 to 200 uM after 30 mins by co-immunoprecipitation assay; conditions: hl-60, 0.5 h
H016.4C = test: Cytotoxicity against rat H016.4C cells assessed as cell growth inhibition at 6 to 50 uM after 3 to 9 days by trypan blue exclusion assay; format: functional, cell-based
[3] = biological target: T1, c-Myc/c-Max (Homo sapiens) (UniProt P01106+P61244); test: Inhibition of c-Myc/Max interaction in human HL60 nuclear extracts at 100 to 200 uM after 30 mins by co-immunoprecipitation assay; format: protein assay
[4] = biological target: T1, c-Myc/c-Max (Homo sapiens); test: Inhibition of recombinant human His6 tagged c-Myc bHLH-LZ domain (353 to 439 residues) with GGCD extension at C-terminus/recombinant human full length His6 tagged Max (151 residues) expressed in Escherichia coli assessed as reduction of heterodimer binding to HEX labeled E-box-containing DNA after 90 mins by electrophoretic mobility shift assay
HL-60 [5] = test: Effect on absolute levels of Max in human HL60 nuclear extracts at 100 to 200 uM after 30 mins by co-immunoprecipitation assay; conditions: hl-60, 0.5 h
[6] = biological target: Myc proto-oncogene protein (Rattus norvegicus) (UniProt P09416); test: Inhibition of c-Myc in rat TGR1 cells assessed as cell growth inhibition at 6 to 50 uM after 3 to 4 days by trypan blue exclusion assay; format: cell-based
[7] = biological target: Myc proto-oncogene protein (Homo sapiens) (UniProt P01106); test: Binding affinity to recombinant human His6 tagged c-Myc bHLH-LZ domain (353 to 439 residues) with GGCD extension at C-terminus expressed in Escherichia coli BL21 DE3 (pLysS) by fluorescence polarization assay
[8] = biological target: Protein max (Homo sapiens) (UniProt P61244); test: Binding affinity to recombinant human full length His6 tagged Max (151 residues) expressed in Escherichia coli M15 (pRep4) at 25 uM by fluorescence polarization assay
[9] = biological target: Myc proto-oncogene protein (Homo sapiens) (UniProt P01106); test: Binding affinity to recombinant human His6 tagged c-Myc bHLH-LZ domain (353 to 439 residues) with GGCD extension at C-terminus expressed in Escherichia coli BL21 DE3 (pLysS) at 25 uM by fluorescence polarization assay

Compound	inhibition [3]	inhibition [4]	inhibition [6]	K [7] [µM]	Activity [8]	Activity [9]	Activity [1]	Activity (HL-60 [2])	growth inhibition (GI) (H016.4C)	Activity (HL-60 [5])
CC(C)c1ccc(/C=C2\SC(=S)N(CN3CCCCC3)C2=O)cc1	Active	Dose-dependent effect	Active	1.8	inactive	Active	Non-Toxic	Non-Toxic	inactive	Non-Toxic
CCc1ccc(/C=C2\SC(SC)=NC2=O)cc1	Active	Dose-dependent effect	–	4.1	inactive	Active	–	Non-Toxic	–	Non-Toxic
CCc1ccc(/C=C2\SC(=S)N(CN3CCCCC3)C2=O)cc1	Active	Dose-dependent effect	–	5.7	inactive	Active	–	Non-Toxic	–	Non-Toxic
CCc1ccc(/C=C2\SC(=S)N(CCC(C)=O)C2=O)cc1	Active	Dose-dependent effect	Active	1.4	inactive	Active	Non-Toxic	Non-Toxic	inactive	Non-Toxic
C#CCN1C(=O)S/C(=C/c2ccc(CC)cc2)C1=O	Active	Dose-dependent effect	Active	–	–	–	Non-Toxic	Non-Toxic	inactive	Non-Toxic
O=C1NC(=S)S/C1=C\C1CCCCC1	Active	Dose-dependent effect	–	–	–	–	–	Non-Toxic	–	Non-Toxic
O=C1/C(=C/c2ccc(Cl)cc2)SC(=S)N1CN1CCCCC1	Active	Dose-dependent effect	Active	0.6	inactive	Active	Non-Toxic	Non-Toxic	inactive	Non-Toxic
C/C(=C1/SC(=S)NC1=O)c1ccccc1	–	–	–	–	inactive	inactive	–	–	–	–

More lines, main results first:

inhibition [3]	inhibition [4]	inhibition [6]	K [7] [µM]	Activity [8]	Activity [9]	Compound	Activity [1]	Activity (HL-60 [2])	growth inhibition (GI) (H016.4C)	Activity (HL-60 [5])
–	–	–	–	inactive	inactive	CCN(CC)c1ccc(/C=C2\SC(=S)NC2=O)cc1	–	–	–	–
Active	Dose-dependent effect	–	1	inactive	Active	CC(C)c1ccc(/C=C2\SC(=S)NC2=O)cc1	–	Non-Toxic	–	Non-Toxic
–	–	–	–	inactive	inactive	O=C1NC(=S)S/C1=C\c1ccc(O)cc1	–	–	–	–
Active	Dose-dependent effect	Active	8.6	inactive	Active	O=C1NC(=S)S/C1=C\c1ccc(O)c(O)c1	Non-Toxic	Non-Toxic	inactive	Non-Toxic
Active	Dose-dependent effect	Active	3.1	inactive	Active	C=CCN1C(=O)/C(=C\c2ccc(CC)cc2)SC1=S	Non-Toxic	Non-Toxic	inactive	Non-Toxic
Active	Dose-dependent effect	Active	2.3	inactive	Active	CCc1ccc(/C=C2\SC(=S)NC2=O)cc1	Non-Toxic	Non-Toxic	inactive	Non-Toxic
Active	Dose-dependent effect	Active	2.5	inactive	Active	O=C1NC(=S)S/C1=C\c1ccc(Cl)cc1	Non-Toxic	Non-Toxic	inactive	Non-Toxic
